Reference: US20250049036A1 (priority 2021, published 2025)

Tests used:
Phytophthora infestans [1] = test: whole plant or invertebrate; assay type: in vivo, Phytophthora infestans on tomato; details: in Solanum lycopersicum, read-out: control (efficacy, disease severity) compared to the untreated check
Phakopsora pachyrhizi = Phakopsora pachyrhizi test on soybean, preventive, greenhouse; assay type: in vivo; details: preventive spray on soybean, inoculated one day after treatment, read-out: control (efficacy, disease severity) compared to the untreated check
How it was run: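 Preventive protocol: plants inoculated with a 2×10^5 P. pachyrhizi conidial suspension one day after spray application at the stated rate, then incubated at 22-24 °C and 80-90% RH. Compound was applied from 2% DMSO/acetone diluted in emulsified water.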

Pyricularia oryzae = test: microbe, parasite or virus in culture; assay type: cell-based; details: 168 h, read-out: control compared to the untreated check
Venturia Inequalis = test: Venturia inequalis (VENTIN) spore growth inhibition in liquid medium, 96-well microtiter plate, OD 600; assay type: cell-based; details: spore suspension in PDB liquid medium, 18° C., 15-18 days, OD at 600, read-out: control compared to the untreated check
Description: Potato dextrose (PDB) liquid medium containing a VENTIN (10^5 spores/ml) spore suspension was prepared. For the inhibition assay, each test compound was solved in dimethyl sulfoxide. 100 μl of the test compound in media-solution was added to a 96-well microtiter plate, consequently, the same volume (100 μl) of spore suspension was added to the well making the final test concentrations and the treated plate was incubated at 18° C. for 15-18 days. The growth inhibition was evaluated by measuring the OD at 600. Percent inhibition was calculated with the below formula: […]

Alternaria solani = Alternaria solani (early blight of tomato/potato) mycelial radial growth on potato dextrose agar; assay type: cell-based; details: 168 h, 25° C., seven days, read-out: control compared to the untreated check
Description: (§1) The compounds were dissolved in 0.3% dimethyl sulfoxide and then added to potato dextrose agar medium just prior to dispensing it into petri dishes. 5 mL medium, with the compound in the desired concentration, was dispensed into 60 mm sterile petri-plates. After solidification, each plate was seeded with a 5 mm size mycelial disc taken from the periphery of an actively growing virulent culture plate. The plates were incubated in growth chambers at 25° C. temperature and 60% relative humidity for seven days and the radial growth was measured and compared to the one of the untreated control.

Colletotrichum capsici = Colletotrichum capsici (anthracnose) mycelial radial growth on potato dextrose agar; assay type: cell-based; details: Colletotrichum truncatum, 168 h, 25° C., seven days, read-out: control compared to the untreated check
How it was run: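 Compounds in 0.3% DMSO were mixed into potato dextrose agar, and each plate was seeded with a 5 mm mycelial disc from an actively growing culture. Plates were incubated at 25° C and 60% relative humidity for seven days. Radial growth was compared with untreated control.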

Botrytis cinerea [2] = test: Botrytis cinerea test on tomato, preventive, greenhouse; assay type: in vivo; details: preventive spray on bean/chili plants (heading: tomato), inoculated one day after treatment, read-out: control (efficacy, disease severity) compared to the untreated check
Botrytis cinerea [3] = test: Botrytis cinerea (gray mold) mycelial radial growth on potato dextrose agar; assay type: cell-based; details: 168 h, 22° C., seven days, read-out: control compared to the untreated check
Description: as §1, with “22°” for “25°”, “90%” for “60%”

Parastagonospora nodorum = Parastagonospora nodorum (PARANO) spore growth inhibition in liquid medium, 96-well microtiter plate, OD 600; assay type: cell-based; details: spore suspension in PDB liquid medium, 18° C., 5-6 days, OD at 600, read-out: control compared to the untreated check
How it was run: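 Read-out is percent growth inhibition from OD at 600 after 5-6 days at 18° C. Compounds, dissolved in DMSO, were diluted in potato dextrose broth and combined in equal volume with a 10^5 spores/ml suspension of PARANO.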

Botrytis cinerea [4] = test: Botrytis cinerea liq. (BOTRCI) spore growth inhibition in liquid medium, 96-well microtiter plate, OD 405 nm; assay type: cell-based; details: spore suspension in YBA liquid medium, 22° C., 5-6 days, OD at 405 nm, read-out: control compared to the untreated check
How it was run: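 Spore suspension of B. cinerea (10^4 spores/ml) in YBA liquid medium mixed 1:1 with compound diluted from DMSO. Incubated at 22° C. for 5-6 days. Growth read as OD 405 nm; percent inhibition derived from treatment, untreated-control and blank readings.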

Phytophthora infestans [5] = test: microbe, parasite or virus in culture; assay type: cell-based; details: 168 h, read-out: control compared to the untreated check

Cn1cc(Cl)c2cc(C(=O)NC(C)(C)Cc3ccccc3)cnc21 [Compound 53, 3-chloro-1-methyl-N-(2-methyl-1-phenylpropan-2-yl)-1H-pyrrolo[2,3-b] pyridine-5-carboxamide]
≥ 70%: pest or weed control at 500 ppm (Phytophthora infestans [1]) | pest or weed control at 500 ppm (Phakopsora pachyrhizi) | inhibition of growth at 300 ppm (Pyricularia oryzae) | inhibition of growth at 300 ppm (Venturia Inequalis)

Cn1ccc2cc(C(=O)NC3(Cc4cccc(Cl)c4)CCCCC3)cnc21 [Compound 12, N-(1-(3-chlorobenzyl)cyclohexyl)-1-methyl-1H-pyrrolo[2,3-b]pyridine-5-carboxamide]
≥ 70%: inhibition of growth at 300 ppm (Alternaria solani) | inhibition of growth at 300 ppm (Colletotrichum capsici) | inhibition of growth at 300 ppm (Pyricularia oryzae)

CC(C)CC(C)(Cc1ccccc1)NC(=O)c1cnc2c(c1)c(Cl)cn2C (centres unmarked) [Compound 52, 3-chloro-N-(2,4-dimethyl-1-phenylpentan-2-yl)-1-methyl-1H-pyrrolo[2,3-b]pyridine-5-carboxamide]
≥ 70%: pest or weed control at 500 ppm (Phytophthora infestans [1]) | pest or weed control at 500 ppm (Phakopsora pachyrhizi) | inhibition of growth at 300 ppm (Venturia Inequalis)

CC(CCc1ccccc1)NC(=O)c1cnc2c(ccn2C)c1 (centres unmarked) [Compound 75, 1-methyl-N-(4-phenylbutan-2-yl)-1H-pyrrolo[2,3-b]pyridine-5-carboxamide]
≥ 70%: pest or weed control at 500 ppm (Botrytis cinerea [2]) | inhibition of growth at 300 ppm (Colletotrichum capsici) | pest or weed control at 500 ppm (Phytophthora infestans [1]) | pest or weed control at 500 ppm (Phakopsora pachyrhizi) | inhibition of growth at 300 ppm (Botrytis cinerea [3]) | inhibition of growth at 300 ppm (Parastagonospora nodorum) | inhibition of growth at 300 ppm (Venturia Inequalis) | inhibition of growth at 300 ppm (Botrytis cinerea [4])

Cn1cc(F)c2cc(C(=O)NC(C)(C)Cc3ccc(Cl)c(F)c3)cnc21 [Compound 69, N-(1-(4-chloro-3-fluorophenyl)-2-methylpropan-2-yl)-3-fluoro-1-methyl-1H-pyrrolo[2,3-b]pyridine-5-carboxamide]
≥ 70%: pest or weed control at 500 ppm (Phytophthora infestans [1]) | inhibition of growth at 300 ppm (Pyricularia oryzae) | inhibition of growth at 300 ppm (Venturia Inequalis)

Cn1ccc2cc(C(=O)NC(C)(C)Cc3ccc(Cl)c(F)c3)cnc21 [Compound 42, N-(1-(4-chloro-3-fluorophenyl)-2-methylpropan-2-yl)-1-methyl-1H-pyrrolo[2,3-b]pyridine-5-carboxamide]
≥ 70%: pest or weed control at 500 ppm (Phytophthora infestans [1]) | pest or weed control at 500 ppm (Phakopsora pachyrhizi) | inhibition of growth at 300 ppm (Pyricularia oryzae) | inhibition of growth at 300 ppm (Parastagonospora nodorum)

CC(C)(COC(=O)c1cccc(F)c1)NC(=O)c1cnc2c(c1)CCC2 [Compound 145, 2-(6,7-dihydro-5H-cyclopenta[b]pyridine-3-carboxamido)-2-methylpropyl 3-fluorobenzoate]
≥ 70%: pest or weed control at 500 ppm (Phytophthora infestans [1])

CC(c1ccccc1Cl)C(C)(C)NC(=O)c1cnc2c(ccn2C)c1 (centres unmarked) [Compound 7, N-(3-(2-chlorophenyl)-2-methylbutan-2-yl)-1-methyl-1H-pyrrolo[2,3-b]pyridine-5-carboxamide]
≥ 70%: inhibition of growth at 300 ppm (Alternaria solani) | inhibition of growth at 300 ppm (Pyricularia oryzae) | inhibition of growth at 300 ppm (Parastagonospora nodorum)

CC(C)(Cc1ccc(F)cc1)NC(=O)c1cnc2[nH]ccc2c1 [Compound 41, N-(1-(4-fluorophenyl)-2-methylpropan-2-yl)-1H-pyrrolo[2,3-b] pyridine-5-carboxamide]
≥ 70%: pest or weed control at 500 ppm (Botrytis cinerea [2]) | pest or weed control at 500 ppm (Phytophthora infestans [1]) | pest or weed control at 500 ppm (Phakopsora pachyrhizi) | inhibition of growth at 300 ppm (Phytophthora infestans [5]) | inhibition of growth at 300 ppm (Venturia Inequalis)

Cn1cc(Cl)c2cc(C(=O)NC(C)(C)Cc3ccccc3Cl)cnc21 [Compound 83, 3-chloro-N-(1-(2-chlorophenyl)-2-methylpropan-2-yl)-1-methyl-1H-pyrrolo[2,3-b]pyridine-5-carboxamide]
≥ 70%: pest or weed control at 500 ppm (Botrytis cinerea [2]) | pest or weed control at 500 ppm (Phytophthora infestans [1]) | pest or weed control at 500 ppm (Phakopsora pachyrhizi) | inhibition of growth at 300 ppm (Pyricularia oryzae) | inhibition of growth at 300 ppm (Venturia Inequalis)

Cn1ccc2cc(C(=O)NC3(Cc4ccccc4)CCCCC3)cnc21 [Compound 11, N-(1-benzylcyclohexyl)-1-methyl-1H-pyrrolo[2,3-b]pyridine-5-carboxamide]
≥ 70%: inhibition of growth at 300 ppm (Alternaria solani) | inhibition of growth at 300 ppm (Colletotrichum capsici) | inhibition of growth at 300 ppm (Pyricularia oryzae) | inhibition of growth at 300 ppm (Parastagonospora nodorum)

Cn1ccc2cc(C(=O)NC3(Cc4ccccc4)CC3)cnc21 [Compound 39, N-(1-benzylcyclopropyl)-1-methyl-1H-pyrrolo[2,3-b]pyridine-5-carboxamide]
≥ 70%: inhibition of growth at 300 ppm (Colletotrichum capsici) | pest or weed control at 500 ppm (Phytophthora infestans [1]) | pest or weed control at 500 ppm (Phakopsora pachyrhizi) | inhibition of growth at 300 ppm (Phytophthora infestans [5]) | inhibition of growth at 300 ppm (Pyricularia oryzae) | inhibition of growth at 300 ppm (Venturia Inequalis)

C=C(C)CC(C)(COc1ccccc1F)NC(=O)c1cnc2c(c1)CCC2 (centres unmarked) [Compound 160, N-(1-(2-fluorophenoxy)-2,4-dimethylpent-4-en-2-yl)-6,7-dihydro-5H-cyclopenta[b]pyridine-3-carboxamide]
≥ 70%: inhibition of growth at 300 ppm (Colletotrichum capsici) | inhibition of growth at 300 ppm (Botrytis cinerea [3]) | inhibition of growth at 300 ppm (Parastagonospora nodorum) | inhibition of growth at 300 ppm (Venturia Inequalis)

CC(c1ccccc1Cl)C(C)(C)NC(=O)c1cnc2c(c1)c(F)cn2C (centres unmarked) [Compound 71, N-(3-(2-chlorophenyl)-2-methylbutan-2-yl)-3-fluoro-1-methyl-1H-pyrrolo[2,3-b]pyridine-5-carboxamide]
≥ 70%: pest or weed control at 500 ppm (Phytophthora infestans [1]) | pest or weed control at 500 ppm (Phakopsora pachyrhizi) | inhibition of growth at 300 ppm (Pyricularia oryzae)

Cn1cc(F)c2cc(C(=O)NC(C)(C)Cc3ccccc3F)cnc21 [Compound 68, 3-fluoro-N-(1-(2-fluorophenyl)-2-methylpropan-2-yl)-1-methyl-1H-pyrrolo[2,3-b]pyridine-5-carboxamide]
≥ 70%: pest or weed control at 500 ppm (Phytophthora infestans [1]) | pest or weed control at 500 ppm (Phakopsora pachyrhizi) | inhibition of growth at 300 ppm (Venturia Inequalis)

Cc1nc2c(ccn2C)cc1C(=O)NC(C)(C)C(C)c1ccccc1Cl (centres unmarked) [Compound 40, N-(3-(2-chlorophenyl)-2-methylbutan-2-yl)-1,6-dimethyl-1H-pyrrolo[2,3-b]pyridine-5-carboxamide]
≥ 70%: pest or weed control at 500 ppm (Phytophthora infestans [1]) | pest or weed control at 500 ppm (Phakopsora pachyrhizi) | inhibition of growth at 300 ppm (Botrytis cinerea [3]) | inhibition of growth at 300 ppm (Pyricularia oryzae) | inhibition of growth at 300 ppm (Parastagonospora nodorum)

Cn1ccc2cc(C(=O)NC(C)(C)Cc3cccc(Br)c3)cnc21 [Compound 48, N-(1-(3-bromophenyl)-2-methylpropan-2-yl)-1-methyl-1H-pyrrolo[2,3-b]pyridine-5-carboxamide]
≥ 70%: pest or weed control at 500 ppm (Phytophthora infestans [1]) | pest or weed control at 500 ppm (Phakopsora pachyrhizi) | inhibition of growth at 300 ppm (Pyricularia oryzae) | inhibition of growth at 300 ppm (Parastagonospora nodorum)

Cn1ccc2cc(C(=O)NC(C)(C)C(C)(C)c3ccccc3)cnc21 [Compound 5, N-(2,3-dimethyl-3-phenylbutan-2-yl)-1-methyl-1H-pyrrolo[2,3-b]pyridine-5-carboxamide]
≥ 70%: inhibition of growth at 300 ppm (Alternaria solani) | pest or weed control at 500 ppm (Phakopsora pachyrhizi) | inhibition of growth at 300 ppm (Parastagonospora nodorum)

Cn1ccc2cc(C(=O)NCC3(c4ccccc4)CC3)cnc21 [Compound 79, 1-methyl-N-((1-phenylcyclopropyl)methyl)-1H-pyrrolo [2,3-b]pyridine-5-carboxamide]
≥ 70%: pest or weed control at 500 ppm (Phytophthora infestans [1]) | inhibition of growth at 300 ppm (Phytophthora infestans [5]) | inhibition of growth at 300 ppm (Pyricularia oryzae) | inhibition of growth at 300 ppm (Parastagonospora nodorum) | inhibition of growth at 300 ppm (Venturia Inequalis)

Cc1nc2c(ccn2C)cc1C(=O)NC(C)(C)Cc1ccccc1F [Compound 38, N-(1-(2-fluorophenyl)-2-methylpropan-2-yl)-1,6-dimethyl-1H-pyrrolo[2,3-b]pyridine-5-carboxamide]
≥ 70%: pest or weed control at 500 ppm (Botrytis cinerea [2]) | pest or weed control at 500 ppm (Phytophthora infestans [1]) | pest or weed control at 500 ppm (Phakopsora pachyrhizi) | inhibition of growth at 300 ppm (Pyricularia oryzae)
